The subject of one data set is K562-CD19 cells. Conditions: for cytotoxicity responses on titration of bridging factor: DARIC expressing T cells, broad range of drug concentrations. How it is done: The transduced T cells were then co-incubated with about a 50:50 mixture of the K562 target cells expressing either CD19 (K562-CD19) or CD20 (K562-CD20) to evaluate antigen-specific cytotoxicity. […] The DARIC antigen binding component includes a CD19 antigen binding scFv domain and a FKBP12 multimerization domain, which was linked to a mCherry fluorescent protein.
A series of additional DARIC molecules, in which the antigen binding component was maintained on the T cell surface rather than released into the extracellular space, were tested (see, e.g., FIG. 1I). Several protein regions and transmembrane domains were used to anchor the binding domain to the T cell surface (SEQ ID NOS.:50, 53, 56, 59), each altering the spacing or steric parameters governing multimerization of the DARIC binding and signaling components.
Deactivation of the DARIC system by the addition of a pharmacological agent that competes for binding to one of the multimerization domains was tested. Primary human T cells expressing either a traditional CD19 targeting CAR or primary human T cells expressing the CD19 targeting DARIC components (SEQ ID NO.:66) were co-incubated with 50:50 mixtures of K562-CD19 and K562-CD20 cells.

For data set [1], the system named is CD19 expressing K562 target cells. The data set can be described thus: Cytokine secretion of T cells encoding DARIC components co-incubated with K562 target cells (Cytokine Bead Array). The class given is cell-based, human. On the procedure: Recombinant T cells expressing the two DARIC components were incubated with K562 target cells (a human myeloid leukemia cell line), which were modified to express either CD19 or CD20 antigen, to examine cytokine expression. […] Supernatants were isolated for analysis of cytokine production (see FIG. 4).
Two samples of primary human T cells were isolated, expanded, and then prepared by electroporation with IVT-mRNA encoding either (i) the validated single-chain CAR (CD19-CAR, SEQ ID NO.:[…], positive control); or (ii) both DARIC binding and signaling components (DSC, SEQ ID NO.:16 plus DBC-CD19, SEQ ID NO.:2). […] The supernatants were then collected and assayed for analyte concentrations using cytokine capture antibody-labeled beads (Becton Dickenson Cytokine Bead Array, human Th1/Th2 kit). Comparison with recombinant protein standards enabled calculation of absolute concentrations of each of the six cytokines encompassed by the bead array.

The next data set concerns K562-CD19 target cells. The data set can be described thus: Cytotoxicity of IVT-mRNA electroporated T cells encoding DARIC components against K562-CD19/K562-CD20 mixture (flow cytometry). The data set is classed as cell-based, human. How it is done:
Recombinant T cells expressing the two DARIC components were incubated with K562 target cells (a human myeloid leukemia cell line), which were modified to express either CD19 or CD20 antigen, to examine target cell lysis. Briefly, T cells were co-incubated with a 50:50 mixture of K562-CD19 and K562-CD20 target cell lines, at 3:1 or 10:1 T cell to target cell ratios. […] The relative percentage of each of the target cell lines was monitored by flow cytometry staining for the CD19 and CD20 antigens to evaluate cell lysis (see FIG. 3).
Four samples of primary human T cells were prepared by electroporation with IVT-mRNA encoding (i) an extensively validated single-chain chimeric antigen receptor (CAR) (CD19-CAR, SEQ ID NO.:14, positive control); (ii) the DARIC signaling component only (DSC, SEQ ID NO.:16, negative control); iii) the DARIC binding component only (DBC-CD19, SEQ ID NO.:2, negative control); and (iv) both DARIC binding and signaling components (DSC, SEQ ID NO.:16 plus DBC-CD19, SEQ ID NO.:2). The relative percentages of each of the target cell lines were monitored by flow cytometry staining for the CD19 and CD20 antigens (FIG. 3A).
The percent specific cytotoxicity was calculated for each condition as the percentage change relative the input K562-CD19:K562-CD20 ratio.
Background: A flow cytometer gives signals particle by particle.

The next data set relates to K562-CD123 target cells. As to the kind of experiment: Antigen-specific cytotoxicity of lentivirus-transduced T cells against 50:50 K562-CD19/K562-CD123. The settings on record: sample containing rapamycin; T:K562 5:1. The class given is cell-based, human. From the text:
The DARIC system was extended to an additional model antigen to show the broad applicability of artificial cells expressing drug regulated multipartite receptors templated herein. K562 target cell lines were generated to express the CD123 antigen by sub-cloning this antigen into a lentiviral vector comprising a puromycin selection cassette (SEQ ID NO.:74), lentiviral particles were produced, and K562 cells were infected and selected with puromycin.

Where [2] appears, read: T cells expressing DARIC components (DSC plus DBC-CD19), 500 nM AP21967, 1:1.

Where two headings read alike, the source gives them in different places.

In the case of `CO[C@H]1[C@@H](O)[C@H](C)C[C@H](C)/C=C/C=C/C=C(\C)[C@@H](c2c[nH]c3c(C)cccc23)C[C@@H]2CC[C@@H](C)[C@@](O)(O2)C(=O)C(=O)N2CCCC[C@H]2C(=O)O[C@H]([C@H](C)C[C@@H]2CC[C@@H](O)[C@H](OC)C2)C[C@H](O)[C@H](C)/C=C(\C)[C@H]1O` [AP21967, C-16-(S)-7-methylindolerapamycin], the “elimination of CD19 expressing K562 cells” value with K562-CD19 cells (T cells with DARIC signaling component FRB (2021-2113) T2098L, T:K562 5:1, rapamycin 10 nM or AP21967 100 nM) is recorded as “elimination of the CD19 expressing K562 cells”. Besides, the “elimination of K562-CD19 cells” value in the data set on K562-CD19 cells (T cells with DARIC signaling component FRB dimerization domain, T:K562 5:1, rapamycin 10 nM or AP21967 100 nM) is “no effect on cell survival”. Moreover, in data set [1] (setting [2]), the IFNγ production entry is listed as “equivalent, or superior, to the single chain CD19-CAR positive control” and the IL-2 production entry is “equivalent, or superior, to the single chain CD19-CAR positive control”. In addition, the specific cytotoxicity entry with K562-CD19 target cells (T cells expressing both DARIC components (DSC plus DBC-CD19), 500 nM AP21967) is recorded as “substantial specific cytoxicity”.
Turning to `C=CC[C@@H]1/C=C(\C)C[C@H](C)C[C@H](OC)[C@H]2O[C@@](O)(C(=O)C(=O)N3CCCC[C@H]3C(=O)O[C@H](/C(C)=C/[C@@H]3CC[C@@H](O)[C@H](OC)C3)[C@H](C)[C@@H](O)CC1=O)[C@H](C)C[C@@H]2OC` [FK506], the entries for the “change in antigen specific cytotoxicity on addition of anti-bridging factor” value in the data set on K562-CD19 cells (CD19 targeting CAR T cells) and in the data set on K562-CD19 cells (CD19 targeting DARIC T cells with rapamycin) were “minimal reduction” and “marked reduction”, respectively.
In the case of `CO[C@H]1C[C@@H]2CC[C@@H](C)[C@@](O)(O2)C(=O)C(=O)N2CCCC[C@H]2C(=O)O[C@H]([C@H](C)C[C@@H]2CC[C@@H](OCCO)[C@H](OC)C2)CC(=O)[C@H](C)/C=C(\C)[C@@H](O)[C@@H](OC)C(=O)[C@H](C)C[C@H](C)/C=C/C=C/C=C/1C` [everolimus], the “cytotoxicity responses on titration of bridging factor” value in the data set on K562-CD19 cells (T:K562 5:1) was “maintained to sub-nanomolar drug concentrations”.
As for `CO[C@H]1C[C@@H]2CC[C@@H](C)[C@@](O)(O2)C(=O)C(=O)N2CCCC[C@H]2C(=O)O[C@H]([C@H](C)C[C@@H]2CC[C@@H](O)[C@H](OC)C2)CC(=O)[C@H](C)/C=C(\C)[C@@H](O)[C@@H](OC)C(=O)[C@H](C)C[C@H](C)/C=C/C=C/C=C/1C` [rapamycin], the “cytotoxicity responses on titration of bridging factor” value in the data set with K562-CD19 cells (T:K562 5:1) is reported as “maintained to sub-nanomolar drug concentrations”. For the same molecule, the cytotoxicity response result in the data set on K562-CD19 cells (mixed T cell populations, one expressing DARIC antigen binding component, the other DARIC signaling component) was “cytotoxicity response against K562-CD19 cells”. Also, in the data set on K562-CD19 cells (swapped DARIC: binding component DmrC, signaling component DmrA (SEQ ID NOs.:12, 31), samples containing rapamycin), the antigen specific cytotoxicity entry was “Antigen specific cytotoxicity was observed”.
With “SS-DmrC-CD8TM-41BB-CD3z-P2A-SS-CD123scFv-DmrA-CD4TM protein [CD123 DARIC]”, the cytotoxicity entry with K562-CD123 target cells is “Cytotoxicity was observed”.
Turning to “SS-FRB(T2098L)-TM-41BB-CD3z mRNA [DARIC signaling component]”, the specific cytotoxicity result with K562-CD19 target cells (primary human T cells electroporated with IVT-mRNA, 50:50 K562-CD19/K562-CD20, 3:1 or 10:1 T cell to target cell ratio) is listed as “no significant cytotoxicity”.
In the case of “both DARIC components: T cells expressing both DARIC binding and signaling components”, in data set [1] (T cells expressing DARIC components, absence of bridging factor AP21967), the cytokine production result is recorded as “no significant cytokine production”. Moreover, the specific cytotoxicity entry in the data set on K562-CD19 target cells (T cells expressing both DARIC components, without addition of AP21967) is reported as “no significant cytotoxicity”.

Values taken from patent US11530265B2, “Multipartite signaling proteins and uses thereof” (2seventy bio, Inc., priority 2013, dated 2022).
